Results: ChEMBL document CHEMBL3621178, “Antidiabetic effect of novel benzenesulfonylureas as PPAR-γ agonists and their anticancer effect” (Bioorg Med Chem Lett, 2015)
Activity calls are given as the source filed them. The rule behind the calls is not given here.

What was measured:
[1] = Growth inhibition of human HCC2998 cells assessed as cell viability at 10 uM incubated for 48 hrs by sulforhodamine B assay; format: functional; settings: HCC 2998, 48 h, read-out: Activity
[2] = system: M14; assay: Growth inhibition of human M14 cells assessed as cell viability at 10 uM incubated for 48 hrs by sulforhodamine B assay; format: functional; settings: M14, 48 h, read-out: Activity
[3] = system: HCT-15; assay: Growth inhibition of human HCT15 cells assessed as cell viability at 10 uM incubated for 48 hrs by sulforhodamine B assay; format: functional; settings: HCT-15, 48 h, read-out: Activity
[4] = system: NCI-H522; assay: Growth inhibition of human NCI-H522 cells assessed as cell viability at 10 uM incubated for 48 hrs by sulforhodamine B assay; format: functional; settings: NCI-H522, 48 h, read-out: Activity
[5] = system: MDA-MB-231; assay: Growth inhibition of human MDA-MB-231 cells assessed as cell viability at 10 uM incubated for 48 hrs by sulforhodamine B assay; format: functional; settings: MDA-MB-231, 48 h, read-out: Activity
[6] = system: SR; assay: Growth inhibition of human SR cells assessed as cell viability at 10 uM incubated for 48 hrs by sulforhodamine B assay; format: functional; settings: read-out: Activity
[7] = system: NCI-H460; assay: Growth inhibition of human NCI-H460 cells assessed as cell viability at 10 uM incubated for 48 hrs by sulforhodamine B assay; format: functional; settings: NCI-H460, 48 h, read-out: Activity
[8] = Growth inhibition of human RPMI8226 cells assessed as cell viability at 10 uM incubated for 48 hrs by sulforhodamine B assay; format: functional; settings: RPMI-8226, 48 h, read-out: Activity
[9] = system: UACC-257; assay: Growth inhibition of human UACC257 cells assessed as cell viability at 10 uM incubated for 48 hrs by sulforhodamine B assay; format: functional; settings: UACC-257, 48 h, read-out: Activity
[10] = system: OVCAR-5; assay: Growth inhibition of human OVCAR5 cells assessed as cell viability at 10 uM incubated for 48 hrs by sulforhodamine B assay; format: functional; settings: OVCAR-5, 48 h, read-out: Activity
[11] = system: SF-268; assay: Growth inhibition of human SF268 cells assessed as cell viability at 10 uM incubated for 48 hrs by sulforhodamine B assay; format: functional; settings: SF-268, 48 h, read-out: Activity
[12] = system: SW-620; assay: Growth inhibition of human SW620 cells assessed as cell viability at 10 uM incubated for 48 hrs by sulforhodamine B assay; format: functional; settings: SW-620, 48 h, read-out: Activity
[13] = system: SN12C; assay: Growth inhibition of human SN12C cells assessed as cell viability at 10 uM incubated for 48 hrs by sulforhodamine B assay; format: functional; settings: read-out: Activity
[14] = system: SK-MEL-2; assay: Growth inhibition of human SK-MEL-2 cells assessed as cell viability at 10 uM incubated for 48 hrs by sulforhodamine B assay; format: functional; settings: SK-MEL-2, 48 h, read-out: Activity
[15] = system: HOP-62; assay: Growth inhibition of human HOP62 cells assessed as cell viability at 10 uM incubated for 48 hrs by sulforhodamine B assay; format: functional; settings: HOP-62, 48 h, read-out: Activity
[16] = system: UACC-62; assay: Growth inhibition of human UACC62 cells assessed as cell viability at 10 uM incubated for 48 hrs by sulforhodamine B assay; format: functional; settings: UACC-62, 48 h, read-out: Activity
[17] = Growth inhibition of human NCI-ADR-RES cells assessed as cell viability at 10 uM incubated for 48 hrs by sulforhodamine B assay; format: functional; settings: read-out: Activity
[18] = system: MDA-MB-435; assay: Growth inhibition of human MDA-MB-435 cells assessed as cell viability at 10 uM incubated for 48 hrs by sulforhodamine B assay; format: functional; settings: MDA-MB-435, 48 h, read-out: Activity
[19] = system: TK-10; assay: Growth inhibition of human TK10 cells assessed as cell viability at 10 uM incubated for 48 hrs by sulforhodamine B assay; format: functional; settings: TK-10, 48 h, read-out: Activity
[20] = system: A549; assay: Growth inhibition of human A549/ATCC cells assessed as cell viability at 10 uM incubated for 48 hrs by sulforhodamine B assay; format: functional; settings: A549, 48 h, read-out: Activity
[21] = Growth inhibition of human SF295 cells assessed as cell viability at 10 uM incubated for 48 hrs by sulforhodamine B assay; format: functional; settings: SF-295, 48 h, read-out: Activity
[22] = system: SNB-75; assay: Growth inhibition of human SNB75 cells assessed as cell viability at 10 uM incubated for 48 hrs by sulforhodamine B assay; format: functional; settings: SNB-75, 48 h, read-out: Activity
[23] = system: Rattus norvegicus; assay: Antidiabetic activity in STZ-induced diabetic Wistar rat model assessed as reduction in blood glucose level at 30 mg/kg, po repeated for 15 days by GOD-POD method; format: functional, organism-based
[24] = molecular target: T1, Peroxisome proliferator-activated receptor gamma (Homo sapiens) (UniProt P37231); assay: Agonist activity at PPARgamma (unknown origin) expressed in HEK293 cells assessed as receptor transactivation at 10 uM incubated for 24 hrs by luciferase reporter gene assay; format: cell-based
T1 sequence (whole entry): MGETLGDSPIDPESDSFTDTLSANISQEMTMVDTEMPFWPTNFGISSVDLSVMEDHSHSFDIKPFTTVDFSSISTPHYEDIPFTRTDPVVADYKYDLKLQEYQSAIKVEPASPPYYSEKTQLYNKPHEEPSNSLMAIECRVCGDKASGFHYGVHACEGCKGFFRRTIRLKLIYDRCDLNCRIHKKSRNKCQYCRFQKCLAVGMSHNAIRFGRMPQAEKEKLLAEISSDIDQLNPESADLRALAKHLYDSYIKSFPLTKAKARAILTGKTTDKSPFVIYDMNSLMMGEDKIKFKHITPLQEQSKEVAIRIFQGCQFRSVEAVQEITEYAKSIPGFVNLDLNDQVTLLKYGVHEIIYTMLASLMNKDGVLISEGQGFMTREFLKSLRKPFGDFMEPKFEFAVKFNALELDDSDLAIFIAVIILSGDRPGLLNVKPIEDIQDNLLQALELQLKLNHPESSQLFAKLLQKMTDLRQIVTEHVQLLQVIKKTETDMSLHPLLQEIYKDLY

[25] = system: Rattus norvegicus; assay: Toxicity in STZ-induced diabetic Wistar rat model assessed as increase in body weight at 30 mg/kg, po repeated for 15 days […]; format: organism-based; settings: in vivo, 360 h

For O=C(NCc1ccccc1)NS(=O)(=O)c1ccc(N2N=C(c3cc4ccccc4oc3=O)CC2c2cccs2)cc1 (configuration not stated), the viability at 10 µM [1] was 106%, the viability at 10 µM [2] was 98.8% and the viability at 10 µM [3] was 106%. The viability at 10 µM [4] was 96.3%, the viability at 10 µM [5] was 103% and the viability at 10 µM [6] was 98.8%. It also gave a viability at 10 µM [7] of 107%, a viability at 10 µM [8] of 105% and a viability at 10 µM [9] of 104%. The viability at 10 µM [10] was 111%, the viability at 10 µM [11] was 103% and the viability at 10 µM [12] was 108%. The viability at 10 µM [13] was 98.4%, the viability at 10 µM [14] was 96% and the viability at 10 µM [15] was 93.6%. The viability at 10 µM [16] was 102%, the viability at 10 µM [17] was 103% and the viability at 10 µM [18] was 103%. It also gave a viability at 10 µM [19] of 108%, a viability at 10 µM [20] of 99.3% and a viability at 10 µM [21] of 93.8%. The viability at 10 µM [22] was 82.3%.
In the case of COc1ccc(C2CC(c3cc4ccccc4oc3=O)=NN2c2ccc(S(=O)(=O)NC(=O)Nc3ccccc3C)cc2)cc1 (configuration not stated), the Activity [23] is reported as “Active”, the viability at 10 µM [1] is reported as 107% and the viability at 10 µM [2] is reported as 91.8%. The viability at 10 µM [3] was 95.8%, the Activity [24] was “Active” and the viability at 10 µM [5] was 65.9%. For the same compound, the viability at 10 µM [6] was 80.4%, the viability at 10 µM [7] was 99.8% and the viability at 10 µM [8] was 85.8%. For the same compound, the viability at 10 µM [9] was 113%, the viability at 10 µM [10] was 83.1% and the viability at 10 µM [11] was 101%. It also gave a viability at 10 µM [12] of 97.1%, a viability at 10 µM [13] of 99.2% and a viability at 10 µM [15] of 87.3%. It also gave a viability at 10 µM [16] of 89.2%, a viability at 10 µM [17] of 98.1% and a viability at 10 µM [18] of 102%. The Activity [25] was “Non-toxic”, the viability at 10 µM [20] was 96.6% and the viability at 10 µM [21] was 93.8%. For the same compound, the viability at 10 µM [22] was 78.3%.
In the case of CN(C)c1ccc(C2CC(c3cc4ccccc4oc3=O)=NN2c2ccc(S(=O)(=O)NC(=O)NCc3ccccc3)cc2)cc1 (configuration not stated), the viability at 10 µM [1] is reported as 90%, the viability at 10 µM [2] is reported as 55% and the viability at 10 µM [3] is reported as 32.8%. The viability at 10 µM [5] was 78.1%, the viability at 10 µM [6] was 19.7% and the viability at 10 µM [7] was 65.3%. For the same compound, the viability at 10 µM [8] was 66.1%, the viability at 10 µM [9] was 64.9% and the viability at 10 µM [10] was 74.6%. It also gave a viability at 10 µM [11] of 87.9%, a viability at 10 µM [12] of 73.1% and a viability at 10 µM [13] of 77.8%. For the same compound, the viability at 10 µM [15] was 57.8%, the viability at 10 µM [16] was 37.6% and the viability at 10 µM [17] was 83.1%. It also gave a viability at 10 µM [18] of 65.5%, a viability at 10 µM [20] of 61% and a viability at 10 µM [21] of 61.7%. For the same compound, the viability at 10 µM [22] was 27.1%.
In the case of COc1ccc(NC(=O)NS(=O)(=O)c2ccc(N3N=C(c4cc5ccccc5oc4=O)CC3c3ccc(N(C)C)cc3)cc2)cc1 (configuration not stated), the viability at 10 µM [1] is reported as 104%, the viability at 10 µM [2] is reported as 95.6% and the viability at 10 µM [3] is reported as 93.1%. It also gave a viability at 10 µM [5] of 97%, a viability at 10 µM [6] of 74.3% and a viability at 10 µM [7] of 105%. It also gave a viability at 10 µM [8] of 98%, a viability at 10 µM [9] of 96.3% and a viability at 10 µM [10] of 102%. The viability at 10 µM [11] was 98.8%, the viability at 10 µM [12] was 103% and the viability at 10 µM [13] was 97.1%. For the same compound, the viability at 10 µM [15] was 71.8%, the viability at 10 µM [16] was 88.6% and the viability at 10 µM [17] was 100%. It also gave a viability at 10 µM [18] of 102%, a viability at 10 µM [20] of 95% and a viability at 10 µM [21] of 83.8%. The viability at 10 µM [22] was 70.2%.
In the case of COc1ccc(C2CC(c3ccco3)=NN2c2ccc(S(=O)(=O)NC(=O)NCc3ccccc3)cc2)cc1 (configuration not stated), the Activity [23] is reported as “Active”, the viability at 10 µM [1] is reported as 109% and the viability at 10 µM [2] is reported as 102%. The viability at 10 µM [3] was 101%, the Activity [24] was “Active” and the viability at 10 µM [4] was 86.3%. For the same compound, the viability at 10 µM [5] was 112%, the viability at 10 µM [6] was 107% and the viability at 10 µM [7] was 106%. For the same compound, the viability at 10 µM [8] was 102%, the viability at 10 µM [9] was 97.9% and the viability at 10 µM [10] was 102%. The viability at 10 µM [11] was 103%, the viability at 10 µM [12] was 104% and the viability at 10 µM [13] was 106%. The viability at 10 µM [14] was 90.7%, the viability at 10 µM [15] was 103% and the viability at 10 µM [16] was 105%. The viability at 10 µM [17] was 104%, the viability at 10 µM [18] was 103% and the Activity [25] was “Non-toxic”. For the same compound, the viability at 10 µM [19] was 93%, the viability at 10 µM [20] was 92.8% and the viability at 10 µM [21] was 95.9%. The viability at 10 µM [22] was 97.8%.
